Residues, ends and D or L forms follow the SMILES beside them.
Experiments:
[1] = ORAC (Oxygen Radical Absorbance Capacity) test; details: FIG. 46; combined with maple syrup
Protocol: The antioxidant capacity of formulations and beverages was determined with the ORAC (Oxygen Radical Absorbance Capacity) test. ORAC assays were performed as previously described (Prior et al, 2005). […] These free radicals are generated by the exposition of flurorescein to AAPH. […] The oxidation process is a kinetic reaction that is measured fluorescence levels (excitation: 485 nm, emission: 528 nm) over time using a Synergy HT (Biotek) microplate reader. Area under the curves (AUC) from each compound tested are calculated and compared to the blank and the control of reference the vitamin E analog 6-Hydroxy-2,5,7,8 Teramethylchromane-2-carboxylic acid (Trolox). ORAC values are expressed as μmol of Trolox equivalent per ml (μmol TE/ml) of compound tested.

TLR2 = biological target: T1, TLR2 (Homo sapiens, UniProt O60603+Q15399); assay: TLR2 activation with Pam3Cys in Cal27 cells under low or high oxidative stress; type: cell-based; details: FIG. 34, Pam3Cys 500 ng/ml
T1 construct: TLR2-dependent ROS production in Cal27 exposed for 30 minutes to various concentrations of AAPH; host or cells: CAL27
T1 sequence (O60603 21-784): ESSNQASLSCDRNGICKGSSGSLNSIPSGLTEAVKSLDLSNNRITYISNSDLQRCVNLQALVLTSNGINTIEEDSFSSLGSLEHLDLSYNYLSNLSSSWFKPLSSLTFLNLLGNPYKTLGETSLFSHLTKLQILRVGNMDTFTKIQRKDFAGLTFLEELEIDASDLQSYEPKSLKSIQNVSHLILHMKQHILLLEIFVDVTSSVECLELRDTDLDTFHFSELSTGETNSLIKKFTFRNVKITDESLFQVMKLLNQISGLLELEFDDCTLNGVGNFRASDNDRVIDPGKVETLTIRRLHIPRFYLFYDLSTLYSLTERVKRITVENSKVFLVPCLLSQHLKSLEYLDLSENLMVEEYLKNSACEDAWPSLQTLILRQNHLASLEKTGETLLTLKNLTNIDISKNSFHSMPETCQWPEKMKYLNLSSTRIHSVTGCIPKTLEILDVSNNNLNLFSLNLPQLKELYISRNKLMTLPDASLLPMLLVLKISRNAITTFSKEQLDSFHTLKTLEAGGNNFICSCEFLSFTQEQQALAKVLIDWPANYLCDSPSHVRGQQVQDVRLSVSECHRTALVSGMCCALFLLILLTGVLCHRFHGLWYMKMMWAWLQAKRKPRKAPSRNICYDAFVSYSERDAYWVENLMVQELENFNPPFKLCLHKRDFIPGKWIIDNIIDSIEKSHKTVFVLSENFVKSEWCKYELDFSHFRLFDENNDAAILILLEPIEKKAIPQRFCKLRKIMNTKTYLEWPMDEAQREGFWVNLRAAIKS
T1 sequence (Q15399 25-786): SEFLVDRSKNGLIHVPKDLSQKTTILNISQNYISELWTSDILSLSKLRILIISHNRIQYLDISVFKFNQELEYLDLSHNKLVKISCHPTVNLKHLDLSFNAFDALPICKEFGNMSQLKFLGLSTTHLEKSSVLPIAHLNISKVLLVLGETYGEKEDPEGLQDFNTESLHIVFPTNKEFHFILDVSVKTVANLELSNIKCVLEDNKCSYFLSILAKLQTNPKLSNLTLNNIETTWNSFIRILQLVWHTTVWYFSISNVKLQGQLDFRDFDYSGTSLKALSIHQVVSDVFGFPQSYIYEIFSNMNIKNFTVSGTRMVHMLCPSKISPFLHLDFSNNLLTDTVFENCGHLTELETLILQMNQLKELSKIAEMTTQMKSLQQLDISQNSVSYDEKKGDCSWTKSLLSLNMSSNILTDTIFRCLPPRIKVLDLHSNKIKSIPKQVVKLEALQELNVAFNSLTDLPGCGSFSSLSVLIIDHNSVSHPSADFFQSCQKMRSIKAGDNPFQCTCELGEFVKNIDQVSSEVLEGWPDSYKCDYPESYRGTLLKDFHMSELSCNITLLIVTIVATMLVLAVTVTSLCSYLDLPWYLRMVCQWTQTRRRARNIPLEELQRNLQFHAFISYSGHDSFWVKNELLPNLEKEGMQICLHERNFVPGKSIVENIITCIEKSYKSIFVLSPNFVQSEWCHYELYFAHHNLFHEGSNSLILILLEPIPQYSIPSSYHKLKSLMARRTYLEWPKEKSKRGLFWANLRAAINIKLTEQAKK
Protocol: Cell lines (CAL27, SH-SY5Y) used for this assay were plated in plaque assays at a density of 50,000-100,000 cells per well. Colorimetric MTT (3-(4,5-dimethylthiazol-2-yl)-2,5-diphenyl tetrazolium bromide) was dissolved in HBSS buffer to obtain a final concentration of 0.5 mg/ml per well. Cell plates were incubated for 2 hours at 37° C. Conditioned medium was then removed, and acid-isopropanol (0.04N HCl in isopropanol) was added to all wells. HCL was used as positive control to induce cell death. Plates were read at 530 nm/630 nm in a Synergy Biotek machine. […] This method is an adaptation of a previously described assay (Mossman, 1983).
All cell lines were obtained from the American Type Culture Collection (ATCC, Manassas, US). In some experiments, cells were transferred to a 96 wells plate and treated with different concentration of TLR2 agonist synthetic triacylated lipoprotein PAM3CSK4 (InvivoGen) starting by 500 ng/ml final concentration to activate TLR2.
(§1) Cellular ROS levels were obtained by measuring the oxidation of CM-H2DCFDA (5-(and 6)-chlromethyl-20,70-dichlorodihydrofluresceindiacetate; Invitrogen) a cell-permeant indicator. Cal27, HEK 293 and SH-SY5Y were plated in 96 well plates at a cell density of 25000 cells per well. Cells were treated for 1 hour with 5 μM CM-H2DCFDA. After removing the CDFDA solution, cells were treated with various adaptogenic formulations prepared with ROS buffer (HBSS containing 2% FBS). After 30 min of exposure with samples, a first reading was taken using the synergy HT (Biotek) plate reader. Various concentrations of AAPH (100 mM, 40 mM, 16 mM, 6.4 mM and 2.5 mM) were then added, and readings (excitation: 485 nm, emission: 530 nm) were taken every 30 minutes for 2 hours. The fluorescence intensity is an indicator of H2O2 intracellular level so values are expressed in Relative Fluorescence Unit (RFU).
ATP intracellular levels were measured from whole cell lysates obtained through a freeze-thaw cycle, whereas ATP secreted from cells were measured from conditioned cell culture supernatants. Both intracellular and secreted ATP using measured using an ATP determination kit purchased from Invitrogen (Molecular Probes). ATP levels were detected at luminescence 560 nm. ATP levels were normalized to untreated control and were expressed as % ATP levels.

SH-SY5Y neurons = assay: ROS production by dopaminergic SH-SY5Y neurons exposed to supernatant of Cal27 cells; type: cell-based, Human
Protocol: as §1
This assay mimics the impact of mucosal cells on subepithelial neuronal cells.

C=C1C[C@@]23CC[C@H]4[C@@](C)(CCC[C@@]4(C)C(=O)O[C@@H]4O[C@H](CO)[C@@H](O)[C@H](O)[C@H]4O)[C@@H]2CC[C@]1(O[C@@H]1O[C@H](CO)[C@@H](O)[C@H](O[C@@H]2O[C@H](CO)[C@@H](O)[C@H](O)[C@H]2O)[C@H]1O[C@@H]1O[C@H](CO)[C@@H](O)[C@H](O)[C@H]1O)C3 [Rebaudiside A, Rebaudioside A]
synergy in combination with maple syrup (ORAC versus sum of SE+ingredient) [1]: act in synergy

C=C1C[C@@]23CC[C@H]4[C@@](C)(CCC[C@@]4(C)C(=O)O[C@@H]4O[C@H](CO)[C@@H](O)[C@H](O)[C@H]4O)[C@@H]2CC[C@]1(O[C@@H]1O[C@H](CO)[C@@H](O)[C@H](O)[C@H]1O[C@@H]1O[C@H](CO)[C@@H](O)[C@H](O)[C@H]1O)C3 [stevioside]
synergy in combination with maple syrup (ORAC versus sum of SE+ingredient) [1]: act in synergy

OC[C@H]1O[C@H](O[C@]2(CCl)O[C@H](CCl)[C@@H](O)[C@@H]2O)[C@H](O)[C@@H](O)[C@H]1Cl [sucralose]
synergy in combination with maple syrup (ORAC versus sum of SE+ingredient) [1]: does not create this synergy

Pam3Cys
impact on ROS production (TLR2; 6.4 mM and 16 mM AAPH): no significant impact | impact on mitochondrial activity (TLR2; 6.4 mM and 16 mM AAPH): no significant impact | ATP secretion (TLR2; cells without AAPH): slightly increased ATP secretion | ATP production (TLR2; high oxidative stress (16 mM AAPH)): increases ATP production | ROS production by dopaminergic neurons upon TLR2 activation of Cal27 cells (SH-SY5Y neurons; FIG. 37, 50 ng/ml of Pam3Cys): reduce ROS production | neuroprotective role upon TLR2 activation of Cal27 cells (SH-SY5Y neurons; higher dose of Pam3Cys (250 or 500 ng/ml)): did not have this neuroprotective role

COC(=O)[C@H](Cc1ccccc1)NC(=O)[C@@H](N)CC(=O)O [aspartame] (H-Asp-Phe-OMe)
synergy in combination with maple syrup (ORAC versus sum of SE+ingredient) [1]: does not create this synergy
